Data as given in patent US8222246B2, “Substituted isoxazoles” (Hoffmann-La Roche Inc., priority 2009, dated 2012).

Molecular target: T1, GABA A α5 (α5β3γ2) (Homo sapiens, UniProt P18507+P31644)
T1 construct: expressed in transfected cells; host or cells: HEK293 (transiently transfected), membranes
Experiment: [3H]flumazenil competition binding assay, human GABA A α5 receptors in HEK293 cells
Conditions: competition for [3H]flumazenil (0.5 nM); HEK293 cells expressing human (transiently transfected) receptors; means of two determinations; read-out: hKi GABA A α5
Experimental: Membrane Preparation and Binding Assay
The affinity of compounds at GABA A receptor subtypes was measured by competition for [3H]flumazenil (85 Ci/mmol; Roche) binding to HEK293 cells expressing rat (stably transfected) or human (transiently transfected) receptors of composition α1β3γ2, α2β3γ2, α3β3γ2 and α5β3γ2.
Cell pellets were suspended in Krebs-tris buffer (4.8 mM KCl, 1.2 mM CaCl2, 1.2 mM MgCl2, 120 mM NaCl, 15 mM Tris; pH 7.5; binding assay buffer), homogenized by polytron for ca. 20 sec on ice and centrifuged for 60 min at 4° C. (50000 g; Sorvall, rotor: SM24=20000 rpm). The cell pellets were resuspended in Krebs-tris buffer and homogenized by polytron for ca. 15 sec on ice. Protein was measured (Bradford method, Bio-Rad) and aliquots of 1 mL were prepared and stored at −80° C.
Radioligand binding assays were carried out in a volume of […] (96-well plates) which contained […] of cell membranes, [3H]flumazenil at a concentration of 1 nM for α1, α2, α3 subunits and 0.5 nM for α5 subunits and the test compound in the range of […]. Nonspecific binding was defined by 10^−5 M diazepam and typically represented less than 5% of the total binding. Assays were incubated to equilibrium for 1 hour at 4° C. and harvested onto GF/C uni-filters (Packard) by filtration using a Packard harvester and washing with ice-cold wash buffer (50 mM Tris; pH 7.5). After drying, filter-retained radioactivity was detected by liquid scintillation counting. Ki values were calculated using Excel-Fit (Microsoft) and are the means of two determinations.
Representative test results, obtained by the above described assay measuring binding affinity to HEK293 cells expressing human (h) receptors, are shown in table 1 below.

| SMILES | Ki |
| --- | --- |
| O=C(N[C@H]1CCC[C@@H]1O)c1ccc(OCc2c(-c3ccc(F)cc3)noc2CO)nc1 (racemic) [Example 10, 6-[3-(4-Fluoro-phenyl)-5-hydroxymethyl-isoxazol-4-ylmethoxy]-N-((1R,2R)-2-hydroxy-cyclopentyl)-nicotinamide or 6-[3-(4-Fluoro-phenyl)-5-hydroxymethyl-isoxazol-4-ylmethoxy]-N-((1S,2S)-2-hydroxy-cyclopentyl)-nicotinamide] | 1.6 nM |
| CC(C)NC(=O)c1ccc(OCc2c(-c3ccccc3)noc2CO)nc1 [Example 1, 6-(5-Hydroxymethyl-3-phenyl-isoxazol-4-ylmethoxy)-N-isopropyl-nicotinamide] | 2.2 nM |
| O=C(NCCO)c1ccc(OCc2c(-c3ccccc3)noc2CO)nc1 [Example 2, N-(2-Hydroxy-ethyl)-6-(5-hydroxymethyl-3-phenyl-isoxazol-4-ylmethoxy)-nicotinamide] | 1.6 nM |
| O=C(c1ccc(OCc2c(-c3ccc(F)cc3)noc2CO)nc1)N1CCS(=O)(=O)CC1 [Example 3, (1,1-Dioxo-1,6-thiomorpholin-4-yl)-{6-[3-(4-fluoro-phenyl)-5-hydroxymethyl-isoxazol-4-ylmethoxy]-pyridin-3-yl}-methanone] | 8.6 nM |
| O=C(NCC1CC1)c1ccc(OCc2c(-c3ccc(F)cc3)noc2CO)nc1 [Example 6, N-Cyclopropylmethyl-6-[3-(4-fluoro-phenyl)-5-hydroxymethyl-isoxazol-4-ylmethoxy]-nicotinamide] | 1.7 nM |
| O=C(NCC(F)(F)F)c1ccc(OCc2c(-c3ccc(F)cc3)noc2CO)nc1 [Example 7, 6-[3-(4-Fluoro-phenyl)-5-hydroxymethyl-isoxazol-4-ylmethoxy]-N-(2,2,2-trifluoro-ethyl)-nicotinamide] | 1.3 nM |
| O=C(NC1CC1)c1ccc(OCc2c(-c3ccc(F)cc3)noc2CO)nc1 [Example 8, N-Cyclopropyl-6-[3-(4-fluoro-phenyl)-5-hydroxymethyl-isoxazol-4-ylmethoxy]-nicotinamide] | 1.7 nM |
| COCCNC(=O)c1ccc(OCc2c(-c3ccc(F)cc3)noc2CO)nc1 [Example 9, 6-[3-(4-Fluoro-phenyl)-5-hydroxymethyl-isoxazol-4-ylmethoxy]-N-(2-methoxy-ethyl)-nicotinamide] | 4.1 nM |
| CC(NC(=O)c1ccc(OCc2c(-c3ccc(F)cc3)noc2CO)nc1)C(F)(F)F (stereo not drawn) [Example 11, 6-[3-(4-Fluoro-phenyl)-5-hydroxymethyl-isoxazol-4-ylmethoxy]-N-(2,2,2-trifluoro-1-methyl-ethyl)-nicotinamide] | 1.4 nM |
| CC(C)(CO)NC(=O)c1ccc(OCc2c(-c3ccc(F)cc3)noc2CO)nc1 [Example 12, 6-[3-(4-Fluoro-phenyl)-5-hydroxymethyl-isoxazol-4-ylmethoxy]-N-(2-hydroxy-1,1-dimethyl-ethyl)-nicotinamide] | 10.1 nM |
| O=C(NCC(F)(F)C(F)(F)F)c1ccc(OCc2c(-c3ccc(F)cc3)noc2CO)nc1 [Example 13, 6-[3-(4-Fluoro-phenyl)-5-hydroxymethyl-isoxazol-4-ylmethoxy]-N-(2,2,3,3,3-pentafluoro-propyl)-nicotinamide] | 3.4 nM |
| CC[C@H](CO)NC(=O)c1ccc(OCc2c(-c3ccc(F)cc3)noc2CO)nc1 [Example 14, 6-[3-(4-Fluoro-phenyl)-5-hydroxymethyl-isoxazol-4-ylmethoxy]-N-((R)-1-hydroxymethyl-propyl)-nicotinamide] | 3.5 nM |
| CC1(NC(=O)c2ccc(OCc3c(-c4ccc(F)cc4)noc3CO)nc2)COC1 [Example 17, 6-[3-(4-Fluoro-phenyl)-5-hydroxymethyl-isoxazol-4-ylmethoxy]-N-(3-methyl-oxetan-3-yl)-nicotinamide] | 1.8 nM |
| O=C(c1ccc(OCc2c(-c3ccc(Cl)cc3)noc2CO)nc1)N1CCS(=O)(=O)CC1 [Example 18, {6-[3-(4-Chloro-phenyl)-5-hydroxymethyl-isoxazol-4-ylmethoxy]-pyridin-3-yl}-(1,1-dioxo-1-thiomorpholin-4-yl)-methanone] | 3.5 nM |
| O=C(NCC(F)(F)F)c1ccc(OCc2c(-c3ccc(Cl)cc3)noc2CO)nc1 [Example 21, 6-[3-(4-Chloro-phenyl)-5-hydroxymethyl-isoxazol-4-ylmethoxy]-N-(2,2,2-trifluoro-ethyl)-nicotinamide] | 2 nM |
| CN(C)C(=O)c1ccc(OCc2c(-c3ccc(Cl)cc3)noc2CO)nc1 [Example 22, 6-[3-(4-Chloro-phenyl)-5-hydroxymethyl-isoxazol-4-ylmethoxy]-N,N-dimethyl-nicotinamide] | 43.4 nM |
| CC(C)(CO)NC(=O)c1ccc(OCc2c(-c3ccc(Cl)cc3)noc2CO)nc1 [Example 23, 6-[3-(4-Chloro-phenyl)-5-hydroxymethyl-isoxazol-4-ylmethoxy]-N-(2-hydroxy-1,1-dimethyl-ethyl)-nicotinamide] | 3.9 nM |
| C[C@H](NC(=O)c1ccc(OCc2c(-c3ccc(Cl)cc3)noc2CO)nc1)C(F)(F)F [Example 25, 6-[3-(4-Chloro-phenyl)-5-hydroxymethyl-isoxazol-4-ylmethoxy]-N-([S]-2,2,2-trifluoro-1-methyl-ethyl)-nicotinamide] | 1.7 nM |
| CC(C)NC(=O)c1ccc(OCc2c(-c3ccc(F)c(F)c3)noc2CO)nc1 [Example 28, 6-[3-(3,4-Difluoro-phenyl)-5-hydroxymethyl-isoxazol-4-ylmethoxy]-N-isopropyl-nicotinamide] | 1.5 nM |
| O=C(NC1CCOCC1)c1ccc(OCc2c(-c3ccc(F)c(F)c3)noc2CO)nc1 [Example 29, 6-[3-(3,4-Difluoro-phenyl)-5-hydroxymethyl-isoxazol-4-ylmethoxy]-N-(tetrahydro-pyran-4-yl)-nicotinamide] | 2 nM |
| O=C(NCC1CC1)c1ccc(OCc2c(-c3ccc(F)c(F)c3)noc2CO)nc1 [Example 30, N-Cyclopropylmethyl-6-[3-(3,4-difluoro-phenyl)-5-hydroxymethyl-isoxazol-4-ylmethoxy]-nicotinamide] | 4 nM |

More lines, in order of falling Ki, values ahead:

| Ki | SMILES |
| --- | --- |
| 1.3 nM | O=C(NC1CCOCC1)c1ccc(OCc2c(-c3ccc(F)cc3)noc2CO)nc1 [Example 5, 6-[3-(4-Fluoro-phenyl)-5-hydroxymethyl-isoxazol-4-ylmethoxy]-N-(tetrahydro-pyran-4-yl)-nicotinamide] |
| 1.2 nM | O=C(N[C@@H]1CCC[C@H]1O)c1ccc(OCc2c(-c3ccc(Cl)cc3)noc2CO)nc1 (single isomer, unassigned) [Example 26, 6-[3-(4-Chloro-phenyl)-5-hydroxymethyl-isoxazol-4-ylmethoxy]-N-((1S,2S)-2-hydroxy-cyclopentyl)-nicotinamide or 6-[3-(4-Chloro-phenyl)-5-hydroxymethyl-isoxazol-4-ylmethoxy]-N-((1R,2R)-2-hydroxy-cyclopentyl)-nicotinamide] |
| 1.1 nM | CC(C)NC(=O)c1ccc(OCc2c(-c3ccc(F)cc3)noc2CO)nc1 [Example 4, 6-[3-(4-Fluoro-phenyl)-5-hydroxymethyl-isoxazol-4-ylmethoxy]-N-isopropyl-nicotinamide] |
| 1 nM | O=C(NC1CC1)c1ccc(OCc2c(-c3ccc(Cl)cc3)noc2CO)nc1 [Example 20, 6-[3-(4-Chloro-phenyl)-5-hydroxymethyl-isoxazol-4-ylmethoxy]-N-cyclopropyl-nicotinamide] |
| 0.9 nM | Cn1cc(NC(=O)c2ccc(OCc3c(-c4ccc(F)cc4)noc3CO)nc2)cn1 [Example 16, 6-[3-(4-Fluoro-phenyl)-5-hydroxymethyl-isoxazol-4-ylmethoxy]-N-(1-methyl-1H-pyrazol-4-yl)-nicotinamide] |
| 0.7 nM | Cn1cc(NC(=O)c2ccc(OCc3c(-c4ccc(Cl)cc4)noc3CO)nc2)cn1 [Example 24, 6-[3-(4-Chloro-phenyl)-5-hydroxymethyl-isoxazol-4-ylmethoxy]-N-(1-methyl-1H-pyrazol-4-yl)-nicotinamide] |
| 0.6 nM | O=C(N[C@H]1CCC[C@@H]1O)c1ccc(OCc2c(-c3ccc(Cl)cc3)noc2CO)nc1 (single isomer, unassigned) [Example 27, 6-[3-(4-Chloro-phenyl)-5-hydroxymethyl-isoxazol-4-ylmethoxy]-N-([1R,2R]-2-hydroxy-cyclopentyl)-nicotinamide or 6-[3-(4-Chloro-phenyl)-5-hydroxymethyl-isoxazol-4-ylmethoxy]-N-([1S,2S]-2-hydroxy-cyclopentyl)-nicotinamide] |
| 0.6 nM | CC[C@@H](CO)NC(=O)c1ccc(OCc2c(-c3ccc(F)cc3)noc2CO)nc1 [Example 15, 6-[3-(4-Fluoro-phenyl)-5-hydroxymethyl-isoxazol-4-ylmethoxy]-N-((S)-1-hydroxymethyl-propyl)-nicotinamide] |
| 0.4 nM | CC(C)NC(=O)c1ccc(OCc2c(-c3ccc(Cl)cc3)noc2CO)nc1 [Example 19, 6-[3-(4-Chloro-phenyl)-5-hydroxymethyl-isoxazol-4-ylmethoxy]-N-isopropyl-nicotinamide] |
